Here are results for one molecule from patent US20070204353A1, “Transgenic animals and methods of monitoring hedgehog responding cells” (priority 2005, published 2007).

Structures are written as SMILES.

The subject of the assay is fast-dividing cells in the SVZ and SGZ. Put plainly: AraC infusion (mini-osmotic pump, one week) into brain of tamoxifen-marked Gli1-CreERT2;R26R mice; marker analysis of fate-mapped lacZ+ cells. The following applies: for lacZ+;GFAP+/total lacZ+ ± SD (%): end of one-week 2% AraC infusion (0 day); for lacZ+;PSA-NCAM+/total lacZ+ ± SD (%): AraC 0 day; for Dlx2 expression: after AraC treatment.

Description: For AraC treatment, two days after TM treatment, a mini-osmotic pump (model 1007D, Duret) was implanted to infuse either saline or 2% AraC (Sigma) for one week as described (Doetsch, F. et al. (1999), Proc Natl Acad Sci USA 96: 11619-11624). Brains of mice that were sacrificed at the end of AraC or control treatment were designated as day 0 samples. For long-term survival experiments, the pump was removed one week after implantation and mice were later sacrificed at the indicated survival time. The second application of AraC was done as the first AraC treatment.
Mice were perfused (4% paraformaldehyde (PFA)), processed for frozen sections, and stained with X-gal as described in the Joyner lab website (http://saturn.med.nyu.edu/research/dg/joynerlab). For immunofluorescent staining, dissected brains were fixed in 4% PFA overnight at 4° C. and 50 μm vibratome (Leica) sections were obtained. Free-floating sections were stained overnight at 4° C. with goat anti-galactosidase (1:500; Biogenesis) and one of the following antibodies: mouse anti-GFAP (1:500), anti-PSA-NCAM (1:300), anti-NeuN (1:200; Chemicon), anti-CCI (1:20, Calbiochem), anti-CNPase (1:150), anti-MBP (1:200, SMI), guinea pig anti-Olig2 (1:20,000; from B. Novitch), rat anti-NG2/AN2 (1:10; from C. Klein), and rabbit anti-GABA (1:500, Sigma). Secondary antibodies for double labeling were donkey anti-species conjugated with Alexa 488, Alexa 555 (1:500; Molecular Probes), or FITC (1:200; Jackson ImmunoResearch). Fluorescent images were captured in 1.5-μm optical sections using a confocal laser-scanning microscope (LSM 510, Zeiss) and processed with Adobe Photoshop. Orthogonal analysis was performed to confirm co-expression of two markers. Cells co-expressing lacZ and one of the various markers were counted and divided by total number of lacZ expressing cells in the indicated region. At least three sections through the SVZ and DG were analyzed from one mouse. Data from at least three mice were pooled together to determine the average and standard deviation (SD). T-test was performed to calculate the p-value and determine whether the results between two time points were different with statistical significance.
Two days after TM treatment, AraC was infused for one week into the brain of Gli1-CreER^T2; R26R mice using a mini-osmotic pump.

For the molecule `Nc1ccn([C@@H]2O[C@H](CO)[C@@H](O)[C@@H]2O)c(=O)n1` [AraC, cytosine arabinoside], the “lacZ+;GFAP+/total lacZ+ ± SD (%)” value came to 93.7±4.7% (DG (SGZ)) and 92.2±1.0% (ventral SVZ). Moreover, the “lacZ+;PSA-NCAM+/total lacZ+ ± SD (%)” value is reported as 2.1 ± 3.6% (DG) and 1.6 ± 2.9% (ventral SVZ). Moreover, the Dlx2 expression entry is recorded as “greatly diminished” (RMS) and “abolished” (SVZ). Further, the “neuroblasts (PSA-NCAM immunoreactivity) in whole mounts of the lateral wall of the lateral ventricles” value (end of AraC treatment (day 0), n=3) is listed as “almost completely depleted”. For the same molecule, the “labeled cells in the SVZ and DG versus control mice” value (within one week after AraC removal, n=5 vs control n=4) was “expanded more than control mice”.
